Molecules are shown by their SMILES. Values joined by “and” are separate entries in the source; they are usually repeats but may differ in a detail not shown here. Equal values may be shown once.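 Grown in 96-well plates, cells were treated for 48 hours with each compound at five concentrations. Insufficient inhibition: endpoint recorded as highest concentration tested. Here, GI50 denotes the concentration required for 50% inhibition of growth. TGI: concentration producing complete growth inhibition.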

Some test systems named below: 786-0 renal; NCI-H522 lung; RPMI-8226 leukemia; SF-539 CNS; NCI-H23 lung; TK-10 renal; NCI-H226 lung; HCT-116 colon; UO-31 renal; MALME-3M melanoma.
Common to all, as to assay: inhibition of tumour cell growth, NCI panel, 48 h

With `CNC(=O)c1ccc(Nc2ncc(C(F)(F)F)c(NCc3nccnc3N(C)S(C)(=O)=O)n2)cc1`, the GI50 in the experiment on 786-0 renal was 2.17 µM and 1.98 µM and 2.01 µM; in the experiment with NCI-H522 lung, 1.97 µM and 2.52 µM and 2.76 µM; in the experiment with RPMI-8226 leukemia, 2.59 µM and 2.95 µM and 2.27 µM; in the experiment on SF-539 CNS, 1.86 µM and 1.99 µM and 1.82 µM; in the experiment with NCI-H23 lung it was 2.61 µM and 2.38 µM and 2.81 µM; in the experiment on TK-10 renal it was 1.65 µM and 1.7 µM and 3.09 µM. For the same compound, the GI50 with NCI-H226 lung was 1.26 µM and 2.71 µM and 3.28 µM; in the experiment with HCT-116 colon it was 2.08 µM and 2.4 µM and 1.71 µM; with UO-31 renal, 1.03 µM and 1.94 µM and 2.14 µM; in the experiment on MALME-3M melanoma it was 4.1 µM and 2.98 µM and 3.71 µM. Besides, the TGI in the experiment with 786-0 renal was > 10 µM and 11.6 µM and 18.3 µM; in the experiment on NCI-H522 lung it was 7.06 µM and 13.3 µM and 7.4 µM; in the experiment with RPMI-8226 leukemia, 6.9 µM and 8.16 µM and 7.58 µM; with SF-539 CNS, 4.76 µM and 5.11 µM and 4.9 µM; with NCI-H23 lung it was 8.64 µM and 7 µM; in the experiment on TK-10 renal, > 10 µM and 10.4 µM and 13.3 µM. The TGI is 6.67 µM and 12 µM and 18.2 µM with NCI-H226 lung; > 10 µM and 10.5 µM and 15.1 µM in the experiment on HCT-116 colon; 5.12 µM and 6.97 µM and 8.22 µM in the experiment on UO-31 renal; > 10 µM and 13.3 µM and 12.7 µM in the experiment on MALME-3M melanoma.

Consider `CCOC(=O)[C@H](CSSc1ncnc2cc[nH]c12)NC(=O)[C@@H](C)c1ccc2cc(OC)ccc2c1`, for which the GI50 was 0.347 µM in the experiment with 786-0 renal; 0.303 µM in the experiment with NCI-H522 lung; 0.282 µM in the experiment with RPMI-8226 leukemia; 0.478 µM in the experiment on SF-539 CNS; 2.18 µM in the experiment on NCI-H23 lung; 0.265 µM in the experiment on TK-10 renal. For the same compound, the GI50 in the experiment with NCI-H226 lung was 0.614 µM; in the experiment with HCT-116 colon, 0.474 µM; in the experiment on UO-31 renal, 0.736 µM; in the experiment with MALME-3M melanoma, 4.02 µM. Besides, the TGI in the experiment with 786-0 renal was greater than 100 µM; with NCI-H522 lung, greater than 31.5 µM; with RPMI-8226 leukemia, greater than 100 µM; in the experiment on SF-539 CNS, greater than 100 µM; in the experiment on NCI-H23 lung it was greater than 100 µM; in the experiment with TK-10 renal, greater than 59.6 µM. The TGI in the experiment on NCI-H226 lung was greater than 100 µM; in the experiment with HCT-116 colon, greater than 100 µM; with UO-31 renal, greater than 100 µM; in the experiment with MALME-3M melanoma, greater than 96.5 µM.

With `C#C[C@@]1(O)[C@@H](CO)O[C@@H](n2cc(Cl)c3c(N)ncnc32)[C@@H]1O`, the GI50 with 786-0 renal is 0.322 µM; with NCI-H522 lung, 0.134 µM; in the experiment with RPMI-8226 leukemia it was 0.151 µM; in the experiment on SF-539 CNS it was 0.324 µM; in the experiment with NCI-H23 lung, 0.192 µM; with TK-10 renal it was 0.317 µM. Besides, the GI50 in the experiment with NCI-H226 lung is 0.508 µM; with HCT-116 colon, 0.0221 µM; in the experiment with UO-31 renal it was 0.173 µM; in the experiment on MALME-3M melanoma, 0.241 µM. For the same compound, the TGI in the experiment with 786-0 renal came to 1.33 µM; with NCI-H522 lung, 0.455 µM; in the experiment on RPMI-8226 leukemia, 0.607 µM; with SF-539 CNS, 1.45 µM; with NCI-H23 lung it was 0.957 µM; with TK-10 renal, 1.24 µM. Also, the TGI was greater than 100 µM in the experiment with HCT-116 colon, 1.78 µM in the experiment on UO-31 renal and 3.18 µM with MALME-3M melanoma.

On to `COc1ccc(-c2coc3ncnc(N)c23)cc1`, for which the GI50 in the experiment with 786-0 renal, with NCI-H522 lung, in the experiment with RPMI-8226 leukemia, in the experiment with SF-539 CNS, in the experiment with NCI-H23 lung and in the experiment with TK-10 renal was greater than 25 µM in each case. Also, the GI50 in the experiment with NCI-H226 lung, with HCT-116 colon, with UO-31 renal and in the experiment with MALME-3M melanoma was greater than 25 µM each time. The TGI in the experiment on 786-0 renal, in the experiment with NCI-H522 lung, in the experiment on RPMI-8226 leukemia, in the experiment on SF-539 CNS, in the experiment with NCI-H23 lung and in the experiment on TK-10 renal was greater than 25 µM in each case. In addition, the TGI with NCI-H226 lung, with HCT-116 colon, with UO-31 renal and in the experiment on MALME-3M melanoma was greater than 25 µM each time.

With `COc1ccc(C(=O)/C=C/c2cc3ccccc3[nH]c2=O)cc1`, the TGI is greater than 37.4 µM in the experiment on 786-0 renal; 24.5 µM in the experiment with NCI-H522 lung; greater than 100 µM in the experiment on RPMI-8226 leukemia; 39.8 µM in the experiment with SF-539 CNS; greater than 53 µM in the experiment on NCI-H23 lung; greater than 100 µM in the experiment with TK-10 renal. The TGI in the experiment on NCI-H226 lung is greater than 100 µM; with HCT-116 colon, 24.8 µM; in the experiment on UO-31 renal, greater than 100 µM; with MALME-3M melanoma it was greater than 100 µM. In addition, the GI50 was 13.5 µM in the experiment with NCI-H522 lung; 18.4 µM with RPMI-8226 leukemia; 18.7 µM in the experiment with SF-539 CNS; 19.7 µM with NCI-H23 lung; 20.9 µM in the experiment with TK-10 renal; 22.1 µM in the experiment with NCI-H226 lung. The figures for the GI50 in the experiment on HCT-116 colon, in the experiment with UO-31 renal and in the experiment with MALME-3M melanoma were 14.7 µM, greater than 100 µM and 40.8 µM, respectively.

These data come from PubChem BioAssay (NCI).
